Experimental data: patent US10294246B2, “Substituted boronic acids and boronate esters as immunoproteasome inhibitors” (MERCK PATENT GMBH, priority 2014, dated 2019)

Legend:
[1] = molecular target: human constitutive proteasome (Beta5) (Homo sapiens (Human), UniProt P28074); experiment: Determination of Beta5 activity (fluorescence intensity assay, Suc-LLVY-AMC); assay type: biochemical; conditions: purified human constitutive proteasome 1.25 nM, Suc-LLVY-AMC 40 μM
Protocol: Determination of Beta5 Activity:
Measurement of Beta5 inhibition is performed in 384 well format based on fluorescence intensity assay.
(§1) Purified human constitutive proteasome (1.25 nM) and serial diluted compounds in DMSO (range of concentrations from 30 μM to […]) or controls are incubated for 20 minutes at 25° C. in assay buffer containing 50 mM Tris pH 7.4, 0.03% SDS, 1 mM EDTA and 1% DMSO. The reaction is initiated by the addition of the fluorogenic peptide substrate, Suc-LLVY-AMC (Bachem 1-1395), at a concentration of 40 μM. After 60 minutes of incubation at 37° C., fluorescence intensity is measured at λex=350 nm and λem=450 nm with a fluorescence reader (Perkin Elmer Envision reader or equivalent).

[2] = molecular target: human immunoproteasome (LMP7) (Homo sapiens (Human), UniProt P28062); experiment: Determination of LMP7 activity (fluorescence intensity assay, Suc-LLVY-AMC); assay type: biochemical; conditions: for Selectivity LMP7 vs Beta5: LMP7 versus Beta5; for IC50: purified human immunoproteasome 0.25 nM, Suc-LLVY-AMC 40 μM
Protocol: Determination of LMP7 Activity:
Measurement of LMP7 inhibition is performed in 384 well format based on fluorescence intensity assay.
as §1, with “immunoproteasome (0.25” for “constitutive proteasome (1.25”

IC50 [1] [nM]	Selectivity LMP7 vs Beta5 [2]	IC50 [2] [nM]	Structure (SMILES)
50 to 500	++ (10 ≤ Selectivity < 50)	< 50	O=C(COc1ncc(Cl)cc1Cl)N[C@@H](Cc1ccccc1)B(O)O [Compound No. 1, [(1R)-1-[[2-[(3,5-dichloro-2-pyridyl)oxy]acetyl]amino]-2-phenyl-ethyl]boronic acid]
500 to 5000	++ (10 ≤ Selectivity < 50)	50 to 500	O=C(COc1ccccn1)N[C@@H](Cc1ccccc1)B(O)O [Compound No. 2, [(1R)-2-phenyl-1-[[2-(2-pyridyloxy)acetyl]amino]ethyl]boronic acid]
50 to 500	++ (10 ≤ Selectivity < 50)	< 50	O=C(COc1ccccc1)N[C@@H](Cc1ccccc1)B(O)O [Compound No. 3, [(1R)-1-[(2-phenoxyacetyl)amino]-2-phenyl-ethyl]boronic acid]
50 to 500	++ (10 ≤ Selectivity < 50)	< 50	Cc1ccc(C[C@H](NC(=O)CCOc2ccccc2)B(O)O)cc1 [Compound No. 4, [(1R)-1-(3-phenoxypropanoylamino)-2-(p-tolyl)ethyl]boronic acid]
50 to 500	++ (10 ≤ Selectivity < 50)	< 50	COc1ccc(OCCC(=O)N[C@@H](Cc2ccc(C)cc2)B(O)O)cc1 [Compound No. 5, [(1R)-1-[3-(4-methoxyphenoxy)propanoylamino]-2-(p-tolyl)ethyl]boronic acid]
50 to 500	+++++ (Selectivity ≥ 100)	< 50	O=C(Cc1ccccc1)N[C@@H](Cc1coc2ccccc12)B(O)O [Compound No. 6, [(1R)-2-(benzofuran-3-yl)-1-[(2-phenylacetyl)amino]ethyl]boronic acid]
–	+++ (50 ≤ Selectivity < 70)	–	Cc1ccc(OCCC(=O)N[C@@H](Cc2coc3ccccc23)B(O)O)cc1 [Compound No. 7, [(1R)-2-(benzofuran-3-yl)-1-[3-(4-methylphenoxy)propanoylamino]-ethyl]boronic acid]
50 to 500	+++ (50 ≤ Selectivity < 70)	< 50	O=C(Cc1cccnc1)N[C@@H](Cc1coc2ccccc12)B(O)O [Compound No. 8, [(1R)-2-(benzofuran-3-yl)-1-[[2-(3-pyridyl)acetyl]amino]ethyl]boronic acid]
50 to 500	++++ (70 ≤ Selectivity < 100)	< 50	N#Cc1ccc(CC(=O)N[C@@H](Cc2coc3ccccc23)B(O)O)cc1 [Compound No. 9, [(1R)-2-(benzofuran-3-yl)-1-[[2-(4-cyanophenyl)acetyl]amino]ethyl]-boronic acid]
50 to 500	++++ (70 ≤ Selectivity < 100)	< 50	COc1ccc(CC(=O)N[C@@H](Cc2coc3ccccc23)B(O)O)cc1 [Compound No. 10, [(1R)-2-(benzofuran-3-yl)-1-[[2-(4-methoxyphenyl)acetyl]amino]ethyl]-boronic acid]
50 to 500	++ (10 ≤ Selectivity < 50)	< 50	O=C(COc1cccnc1)N[C@@H](Cc1coc2ccccc12)B(O)O [Compound No. 11, [(1R)-2-(benzofuran-3-yl)-1-[[2-(3-pyridyloxy)acetyl]amino]ethyl]-boronic acid]
50 to 500	+++ (50 ≤ Selectivity < 70)	< 50	COc1cccc(CC(=O)N[C@@H](Cc2coc3ccccc23)B(O)O)n1 [Compound No. 12, [(1R)-2-(benzofuran-3-yl)-1-[[2-(6-methoxy-2-pyridyl)acetyl]amino]-ethyl]boronic acid]
50 to 500	+++++ (Selectivity ≥ 100)	< 50	CCOc1ccc(CC(=O)N[C@@H](Cc2coc3ccccc23)B(O)O)nc1 [Compound No. 13, [(1R)-2-(benzofuran-3-yl)-1-[[2-(5-ethoxy-2-pyridyl)acetyl]amino]-ethyl]boronic acid]
500 to 5000	+++ (50 ≤ Selectivity < 70)	50 to 500	Cc1ccc(C[C@H](NC(=O)Cc2ccccc2)B(O)O)cc1 [Compound No. 14, [(1R)-1-[(2-phenylacetyl)amino]-2-(p-tolyl)ethyl]boronic acid]
50 to 500	++++ (70 ≤ Selectivity < 100)	< 50	COc1cccc(CC(=O)N[C@@H](Cc2coc3ccccc23)B(O)O)c1 [Compound No. 15, [(1R)-2-(benzofuran-3-yl)-1-[[2-(3-methoxyphenyl)acetyl]amino]ethyl]-boronic acid]
500 to 5000	++ (10 ≤ Selectivity < 50)	50 to 500	Cc1ccc(C[C@H](NC(=O)[C@H](O)c2ccccc2)B(O)O)cc1 [Compound No. 16, [(1R)-1-[[(2R)-2-hydroxy-2-phenyl-acetyl]amino]-2-(p-tolyl)ethyl]-boronic acid]
> 5000	++ (10 ≤ Selectivity < 50)	50 to 500	Cc1ccc(C[C@H](NC(=O)[C@@H](O)c2ccccc2)B(O)O)cc1 [Compound No. 17, [(1R)-1-[[(2S)-2-hydroxy-2-phenyl-acetyl]amino]-2-(p-tolyl)ethyl]-boronic acid]
50 to 500	++ (10 ≤ Selectivity < 50)	< 50	O=C(Cc1cnccn1)N[C@@H](Cc1coc2ccccc12)B(O)O [Compound No. 18, [(1R)-2-(benzofuran-3-yl)-1-[(2-pyrazin-2-ylacetyl)amino]ethyl]boronic acid]
500 to 5000	+++ (50 ≤ Selectivity < 70)	< 50	O=C(Cc1ccncc1)N[C@@H](Cc1coc2ccccc12)B(O)O [Compound No. 19, [(1R)-2-(benzofuran-3-yl)-1-[[2-(4-pyridyl)acetyl]amino]ethyl]boronic acid]
50 to 500	++ (10 ≤ Selectivity < 50)	< 50	O=C(Cc1ncccn1)N[C@@H](Cc1coc2ccccc12)B(O)O [Compound No. 20, [(1R)-2-(benzofuran-3-yl)-1-[(2-pyrimidin-2-ylacetyl)amino]ethyl]-boronic acid]
> 5000	++ (10 ≤ Selectivity < 50)	< 50	CC(=O)Nc1ccc(CC(=O)N[C@@H](Cc2ccc(C)cc2)B(O)O)cc1 [Compound No. 21, [(1R)-1-[[2-(4-acetamidophenyl)acetyl]amino]-2-(p-tolyl)ethyl]boronic acid]
50 to 500	++++ (70 ≤ Selectivity < 100)	< 50	O=C(Cc1cc(F)c(F)c(F)c1)N[C@@H](Cc1coc2ccccc12)B(O)O [Compound No. 22, [(1R)-2-(benzofuran-3-yl)-1-[[2-(3,4,5-trifluorophenyl)acetyl]amino]-ethyl]boronic acid]
–	+++++ (Selectivity ≥ 100)	–	CCO[C@@H](C(=O)N[C@@H](Cc1coc2ccccc12)B(O)O)c1ccccc1 [Compound No. 70, [(1R)-2-(benzofuran-3-yl)-1-[[(2R)-2-ethoxy-2-phenyl-acetyl]amino]-ethyl]boronic acid]
–	–	50 to 500	COc1ccc(CC(=O)N[C@@H](C[C@H]2COc3ccccc32)B(O)O)cc1 [Compound No. 122, [(1R)-2-[(3R)-2,3-dihydrobenzofuran-3-yl]-1-[[2-(4-methoxyphenyl)-acetyl]amino]ethyl]boronic acid]
